Experimental data as given in the kinase profiling compilation of Christmann-Franck et al. (2016).

How the values were obtained:
Test in all cases: radiometric filter-binding kinase assay, Kinase HotSpot
Settings in all cases: compound 0.5 µM; ATP 10 µM
AURKB (human) = AURKB (human) (UniProt Q96GD4)
AXL (human) = AXL (human) (UniProt P30530)
CDK9 CCNK (human) = CDK9 CCNK (human) (UniProt O75909+P50750)
CDK9 CCNT1 (human) = CDK9 CCNT1 (human) (UniProt P50750+O60563)
CLK1 (human) = CLK1 (human) (UniProt P49759)
CSNK1E (human) = CSNK1E (human) (UniProt P49674)
DAPK1 (human) = DAPK1 (human) (UniProt P53355)
FLT1 (human) = FLT1 (human) (UniProt P17948)
FLT3 (human) = FLT3 (human) (UniProt P36888)
GSG2 (human) = GSG2 (human) (UniProt Q8TF76)
HIPK2 (human) = HIPK2 (human) (UniProt Q9H2X6)
HIPK4 (human) = HIPK4 (human) (UniProt Q8NE63)
IGF1R (human) = IGF1R (human) (UniProt P08069)
ITK (human) = ITK (human) (UniProt Q08881)
MAP3K14 (human) = MAP3K14 (human) (UniProt Q99558)
MAP3K3 (human) = MAP3K3 (human) (UniProt Q99759)
MAP3K5 (human) = MAP3K5 (human) (UniProt Q99683)
MAPKAPK2 (human) = MAPKAPK2 (human) (UniProt P49137)
MAPKAPK2 (human), sequence (P49137 whole entry, looked up): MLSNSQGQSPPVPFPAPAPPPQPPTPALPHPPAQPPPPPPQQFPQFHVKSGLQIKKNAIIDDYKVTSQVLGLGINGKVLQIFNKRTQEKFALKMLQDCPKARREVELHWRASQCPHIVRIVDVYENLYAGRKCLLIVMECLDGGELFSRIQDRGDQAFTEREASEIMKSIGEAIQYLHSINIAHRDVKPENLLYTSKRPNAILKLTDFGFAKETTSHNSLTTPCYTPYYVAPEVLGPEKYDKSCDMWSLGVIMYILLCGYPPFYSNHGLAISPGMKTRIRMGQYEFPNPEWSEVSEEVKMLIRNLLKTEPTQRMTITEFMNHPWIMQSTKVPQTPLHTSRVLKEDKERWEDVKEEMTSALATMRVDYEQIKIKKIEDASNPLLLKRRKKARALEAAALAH

MYO3B (human) = MYO3B (human) (UniProt Q8WXR4)
MYO3B (human), sequence (Q8WXR4 whole entry, looked up): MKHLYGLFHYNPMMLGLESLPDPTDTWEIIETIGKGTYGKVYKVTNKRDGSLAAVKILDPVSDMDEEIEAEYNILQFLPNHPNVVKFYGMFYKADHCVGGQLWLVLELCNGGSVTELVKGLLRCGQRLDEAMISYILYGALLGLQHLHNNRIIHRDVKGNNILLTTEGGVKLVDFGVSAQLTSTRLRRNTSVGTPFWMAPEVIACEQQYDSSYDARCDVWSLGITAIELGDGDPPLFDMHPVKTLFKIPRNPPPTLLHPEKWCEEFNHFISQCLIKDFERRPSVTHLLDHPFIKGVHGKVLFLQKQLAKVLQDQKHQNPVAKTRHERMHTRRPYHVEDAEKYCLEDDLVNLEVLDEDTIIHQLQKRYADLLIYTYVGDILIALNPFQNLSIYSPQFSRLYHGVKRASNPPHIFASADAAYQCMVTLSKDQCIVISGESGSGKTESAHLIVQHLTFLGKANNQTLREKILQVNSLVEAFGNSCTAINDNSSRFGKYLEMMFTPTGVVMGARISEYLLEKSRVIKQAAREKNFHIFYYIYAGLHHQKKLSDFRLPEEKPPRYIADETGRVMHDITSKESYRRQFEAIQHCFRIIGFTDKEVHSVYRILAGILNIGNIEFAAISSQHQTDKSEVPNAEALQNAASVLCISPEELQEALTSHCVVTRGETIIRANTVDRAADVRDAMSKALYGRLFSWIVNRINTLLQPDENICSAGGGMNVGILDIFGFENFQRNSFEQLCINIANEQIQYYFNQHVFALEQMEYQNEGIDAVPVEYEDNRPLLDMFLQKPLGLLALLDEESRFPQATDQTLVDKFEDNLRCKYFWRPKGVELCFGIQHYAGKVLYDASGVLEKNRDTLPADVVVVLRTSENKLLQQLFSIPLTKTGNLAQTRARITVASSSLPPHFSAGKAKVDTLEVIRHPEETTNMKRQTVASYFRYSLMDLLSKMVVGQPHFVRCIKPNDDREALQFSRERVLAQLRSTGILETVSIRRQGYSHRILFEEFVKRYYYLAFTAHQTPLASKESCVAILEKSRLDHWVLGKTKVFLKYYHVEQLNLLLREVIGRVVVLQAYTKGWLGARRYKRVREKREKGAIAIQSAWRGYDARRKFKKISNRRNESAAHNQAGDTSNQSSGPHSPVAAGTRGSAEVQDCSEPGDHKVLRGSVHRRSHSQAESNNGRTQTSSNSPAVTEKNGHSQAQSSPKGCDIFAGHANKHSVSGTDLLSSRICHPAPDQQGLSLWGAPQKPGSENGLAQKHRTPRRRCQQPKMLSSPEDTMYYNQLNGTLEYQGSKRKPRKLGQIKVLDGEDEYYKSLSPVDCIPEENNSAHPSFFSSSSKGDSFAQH

NLK (human) = NLK (human) (UniProt Q9UBE8)
NTRK2 (human) = NTRK2 (human) (UniProt Q16620)
PAK1 (human) = PAK1 (human) (UniProt Q13153)
PLK2 (human) = PLK2 (human) (UniProt Q9NYY3)
PLK2 (human), sequence (Q9NYY3 whole entry, looked up): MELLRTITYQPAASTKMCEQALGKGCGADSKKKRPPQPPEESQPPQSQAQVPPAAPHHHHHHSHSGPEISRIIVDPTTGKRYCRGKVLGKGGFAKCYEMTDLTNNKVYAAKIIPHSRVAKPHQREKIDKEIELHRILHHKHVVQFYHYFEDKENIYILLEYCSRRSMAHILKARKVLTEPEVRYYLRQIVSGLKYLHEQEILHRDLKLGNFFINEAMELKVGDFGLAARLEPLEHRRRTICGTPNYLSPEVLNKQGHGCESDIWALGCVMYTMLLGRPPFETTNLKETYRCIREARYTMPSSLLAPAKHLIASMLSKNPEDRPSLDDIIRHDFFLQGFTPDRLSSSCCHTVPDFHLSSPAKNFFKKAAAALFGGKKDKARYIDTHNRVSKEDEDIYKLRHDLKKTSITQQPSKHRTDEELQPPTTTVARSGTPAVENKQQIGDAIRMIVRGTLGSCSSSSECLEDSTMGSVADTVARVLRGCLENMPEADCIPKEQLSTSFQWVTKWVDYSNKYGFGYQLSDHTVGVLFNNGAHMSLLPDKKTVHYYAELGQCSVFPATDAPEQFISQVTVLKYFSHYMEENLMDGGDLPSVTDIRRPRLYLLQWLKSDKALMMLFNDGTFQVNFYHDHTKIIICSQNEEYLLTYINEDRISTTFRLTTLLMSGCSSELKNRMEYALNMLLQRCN

PLK3 (human) = PLK3 (human) (UniProt Q9H4B4)
PRKCE (human) = PRKCE (human) (UniProt Q02156)
PTK2B (human) = PTK2B (human) (UniProt Q14289)
RPS6KB2 (human) = RPS6KB2 (human) (UniProt Q9UBS0)
SGK3 (human) = SGK3 (human) (UniProt Q96BR1)
SRPK2 (human) = SRPK2 (human) (UniProt P78362)
STK33 (human) = STK33 (human) (UniProt Q9BYT3)
STK38 (human) = STK38 (human) (UniProt Q15208)
STK4 (human) = STK4 (human) (UniProt Q13043)
TAOK3 (human) = TAOK3 (human) (UniProt Q9H2K8)
TEK (human) = TEK (human) (UniProt Q02763)
TXK (human) = TXK (human) (UniProt P42681)
[1] = biological target: TYK2 JH1 catalytic (human) (UniProt P29597)
WNK2 (human) = WNK2 (human) (UniProt Q9Y3S1)
WNK2 (human), sequence (Q9Y3S1 whole entry, looked up): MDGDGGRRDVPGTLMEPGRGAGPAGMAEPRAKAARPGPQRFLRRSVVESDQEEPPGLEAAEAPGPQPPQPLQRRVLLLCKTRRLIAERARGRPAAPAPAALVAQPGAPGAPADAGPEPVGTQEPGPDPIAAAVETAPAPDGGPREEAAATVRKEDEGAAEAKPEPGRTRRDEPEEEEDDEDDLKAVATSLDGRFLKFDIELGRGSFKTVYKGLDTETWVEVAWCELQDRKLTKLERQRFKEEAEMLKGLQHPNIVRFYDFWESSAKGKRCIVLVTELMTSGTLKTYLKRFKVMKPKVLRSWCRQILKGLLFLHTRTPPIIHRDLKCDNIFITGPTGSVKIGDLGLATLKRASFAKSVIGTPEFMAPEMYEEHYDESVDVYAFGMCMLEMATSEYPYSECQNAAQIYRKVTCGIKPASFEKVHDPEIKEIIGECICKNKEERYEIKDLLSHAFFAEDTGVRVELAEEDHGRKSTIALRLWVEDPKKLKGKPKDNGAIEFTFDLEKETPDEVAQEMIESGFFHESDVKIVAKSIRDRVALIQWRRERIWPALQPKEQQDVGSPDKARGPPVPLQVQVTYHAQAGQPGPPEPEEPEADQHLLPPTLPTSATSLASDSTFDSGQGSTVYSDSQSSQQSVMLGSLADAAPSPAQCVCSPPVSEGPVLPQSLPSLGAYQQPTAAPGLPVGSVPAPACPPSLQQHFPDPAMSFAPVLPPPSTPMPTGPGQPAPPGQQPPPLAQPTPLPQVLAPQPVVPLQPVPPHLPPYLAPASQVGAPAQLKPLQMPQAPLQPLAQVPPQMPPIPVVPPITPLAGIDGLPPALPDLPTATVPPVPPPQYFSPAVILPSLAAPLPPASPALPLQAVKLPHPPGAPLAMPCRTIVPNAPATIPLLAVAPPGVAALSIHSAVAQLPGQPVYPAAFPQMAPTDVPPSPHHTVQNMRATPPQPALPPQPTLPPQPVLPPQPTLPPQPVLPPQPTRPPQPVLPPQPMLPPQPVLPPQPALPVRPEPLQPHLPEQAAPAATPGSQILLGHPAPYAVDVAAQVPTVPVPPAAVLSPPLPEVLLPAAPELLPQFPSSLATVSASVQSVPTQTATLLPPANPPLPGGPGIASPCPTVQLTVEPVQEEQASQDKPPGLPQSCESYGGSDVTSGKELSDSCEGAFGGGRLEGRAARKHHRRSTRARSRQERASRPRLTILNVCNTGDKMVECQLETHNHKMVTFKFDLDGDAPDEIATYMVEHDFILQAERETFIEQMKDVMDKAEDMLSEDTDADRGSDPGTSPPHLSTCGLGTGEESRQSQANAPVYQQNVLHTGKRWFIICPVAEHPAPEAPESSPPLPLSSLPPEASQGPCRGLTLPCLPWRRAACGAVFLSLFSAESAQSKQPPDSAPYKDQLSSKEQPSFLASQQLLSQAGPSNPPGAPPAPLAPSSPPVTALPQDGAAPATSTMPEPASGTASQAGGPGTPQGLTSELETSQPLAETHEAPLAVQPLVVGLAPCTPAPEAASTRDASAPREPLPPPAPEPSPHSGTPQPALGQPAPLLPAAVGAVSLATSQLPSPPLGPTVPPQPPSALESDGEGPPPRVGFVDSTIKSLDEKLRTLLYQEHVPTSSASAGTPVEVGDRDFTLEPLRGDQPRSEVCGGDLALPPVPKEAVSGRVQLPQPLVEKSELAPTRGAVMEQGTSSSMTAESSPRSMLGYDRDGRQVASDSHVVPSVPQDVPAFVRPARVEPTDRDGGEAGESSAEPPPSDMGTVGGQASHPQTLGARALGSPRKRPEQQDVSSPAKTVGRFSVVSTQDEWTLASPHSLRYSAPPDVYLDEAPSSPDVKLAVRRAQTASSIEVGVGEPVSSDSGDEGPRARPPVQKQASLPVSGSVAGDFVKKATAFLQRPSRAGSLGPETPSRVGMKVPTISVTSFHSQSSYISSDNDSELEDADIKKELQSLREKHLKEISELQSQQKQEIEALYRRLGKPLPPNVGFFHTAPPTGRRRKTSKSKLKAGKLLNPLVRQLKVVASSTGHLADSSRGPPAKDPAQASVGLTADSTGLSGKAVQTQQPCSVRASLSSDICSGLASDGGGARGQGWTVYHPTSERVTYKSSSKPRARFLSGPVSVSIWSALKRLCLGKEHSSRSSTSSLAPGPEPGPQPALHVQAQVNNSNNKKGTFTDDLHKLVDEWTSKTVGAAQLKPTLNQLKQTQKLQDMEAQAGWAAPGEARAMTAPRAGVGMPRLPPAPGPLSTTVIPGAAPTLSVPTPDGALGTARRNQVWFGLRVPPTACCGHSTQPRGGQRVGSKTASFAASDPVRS

YES1 (human) = YES1 (human) (UniProt P07947)
ZAP70 (human) = ZAP70 (human) (UniProt P43403)
MAP3K9 (human) = MAP3K9 (human) (UniProt P80192)
SYK (human) = SYK (human) (UniProt P43405)

AURKB (human), sequence (Q96GD4 whole entry, looked up): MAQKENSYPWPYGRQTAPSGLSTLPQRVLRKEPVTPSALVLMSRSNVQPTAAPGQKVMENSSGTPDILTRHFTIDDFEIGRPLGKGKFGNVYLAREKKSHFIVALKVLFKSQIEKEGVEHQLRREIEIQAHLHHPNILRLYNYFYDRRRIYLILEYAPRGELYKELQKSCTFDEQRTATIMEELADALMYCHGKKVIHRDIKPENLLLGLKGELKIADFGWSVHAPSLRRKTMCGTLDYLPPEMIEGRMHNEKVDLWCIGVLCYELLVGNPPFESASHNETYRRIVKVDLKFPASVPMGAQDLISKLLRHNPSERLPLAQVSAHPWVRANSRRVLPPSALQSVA

## CCN(CC)CCNC(=O)c1c(C)[nH]c(/C=C2\C(=O)Nc3ccc(F)cc32)c1C
AURKB (human)
  residual activity: 48.7%
AXL (human)
  residual activity: 27.4%
CDK9 CCNK (human)
  residual activity: 80.2%
CDK9 CCNT1 (human)
  residual activity: 88.7%
CLK1 (human)
  residual activity: 23.3%
CSNK1E (human)
  residual activity: 46.9%
DAPK1 (human)
  residual activity: 66.9%
FLT1 (human)
  residual activity: 58.7%
FLT3 (human)
  residual activity: 2.71%
GSG2 (human)
  residual activity: 53.2%
HIPK2 (human)
  residual activity: 41.3%
HIPK4 (human)
  residual activity: 74.7%
IGF1R (human)
  residual activity: 62.6%
ITK (human)
  residual activity: 64.3%
MAP3K14 (human)
  residual activity: 127%
MAP3K3 (human)
  residual activity: 42%
MAP3K5 (human)
  residual activity: 100%
MAPKAPK2 (human)
  residual activity: 93.2%
MYO3B (human)
  residual activity: 54.5%
NLK (human)
  residual activity: 105%
NTRK2 (human)
  residual activity: 9.78%
PAK1 (human)
  residual activity: 118%
PLK2 (human)
  residual activity: 99.2%
PLK3 (human)
  residual activity: 96.5%
PRKCE (human)
  residual activity: 98%
PTK2B (human)
  residual activity: 38.3%
RPS6KB2 (human)
  residual activity: 113%
SGK3 (human)
  residual activity: 101%
SRPK2 (human)
  residual activity: 95%
STK33 (human)
  residual activity: 31.8%
STK38 (human)
  residual activity: 93.8%
STK4 (human)
  residual activity: 10.7%
TAOK3 (human)
  residual activity: 82.9%
TEK (human)
  residual activity: 88.6%
TXK (human)
  residual activity: 92.6%
[1]
  residual activity: 52.6%
WNK2 (human)
  residual activity: 100%
YES1 (human)
  residual activity: 5.91%
ZAP70 (human)
  residual activity: 97.2%

## Cc1ccc(Nc2nccc(N(C)c3ccc4c(C)n(C)nc4c3)n2)cc1S(N)(=O)=O
AURKB (human)
  residual activity: 64.6%
AXL (human)
  residual activity: 78.1%
CDK9 CCNK (human)
  residual activity: 92.7%
CDK9 CCNT1 (human)
  residual activity: 91.5%
CLK1 (human)
  residual activity: 103%
CSNK1E (human)
  residual activity: 97.5%
DAPK1 (human)
  residual activity: 105%
FLT1 (human)
  residual activity: 27.2%
FLT3 (human)
  residual activity: 40.7%
GSG2 (human)
  residual activity: 90.4%
HIPK2 (human)
  residual activity: 105%
HIPK4 (human)
  residual activity: 109%
ITK (human)
  residual activity: 115%
MAP3K14 (human)
  residual activity: 104%
MAP3K3 (human)
  residual activity: 112%
MAP3K5 (human)
  residual activity: 102%
MAP3K9 (human)
  residual activity: 10.6%
MAPKAPK2 (human)
  residual activity: 99.6%
MYO3B (human)
  residual activity: 83.4%
NLK (human)
  residual activity: 69%
NTRK2 (human)
  residual activity: 91.5%
PAK1 (human)
  residual activity: 89.1%
PLK2 (human)
  residual activity: 101%
PLK3 (human)
  residual activity: 101%
PRKCE (human)
  residual activity: 100%
PTK2B (human)
  residual activity: 92%
RPS6KB2 (human)
  residual activity: 103%
SGK3 (human)
  residual activity: 97.5%
SRPK2 (human)
  residual activity: 104%
STK33 (human)
  residual activity: 87.1%
STK38 (human)
  residual activity: 100%
STK4 (human)
  residual activity: 98.4%
SYK (human)
  residual activity: 101%
TAOK3 (human)
  residual activity: 55.5%
TEK (human)
  residual activity: 69.3%
TXK (human)
  residual activity: 40.2%
[1]
  residual activity: 94%
WNK2 (human)
  residual activity: 98.2%
YES1 (human)
  residual activity: 52.6%
ZAP70 (human)
  residual activity: 92.6%
